Experimental data from ChEMBL document CHEMBL4418499, “Inhibitors of trim33 and methods of use” (2018).

Assays:
[1] = species on record: Homo sapiens; assay: Selectivity index, ratio of IC50 for recombinant TRIM24 (unknown origin) to IC50 for recombinant TRIM33 PHD bromodomain (unknown origin)
[2] = biological target: T1, E3 ubiquitin-protein ligase TRIM33 (Homo sapiens, UniProt Q9UPN9); assay: Inhibition of recombinant TRIM33 PHD bromodomain (unknown origin) using biotinylated H3 peptide (H3K9me3K18ac) by AlphaScreen assay
T1 sequence (Q9UPN9 whole entry): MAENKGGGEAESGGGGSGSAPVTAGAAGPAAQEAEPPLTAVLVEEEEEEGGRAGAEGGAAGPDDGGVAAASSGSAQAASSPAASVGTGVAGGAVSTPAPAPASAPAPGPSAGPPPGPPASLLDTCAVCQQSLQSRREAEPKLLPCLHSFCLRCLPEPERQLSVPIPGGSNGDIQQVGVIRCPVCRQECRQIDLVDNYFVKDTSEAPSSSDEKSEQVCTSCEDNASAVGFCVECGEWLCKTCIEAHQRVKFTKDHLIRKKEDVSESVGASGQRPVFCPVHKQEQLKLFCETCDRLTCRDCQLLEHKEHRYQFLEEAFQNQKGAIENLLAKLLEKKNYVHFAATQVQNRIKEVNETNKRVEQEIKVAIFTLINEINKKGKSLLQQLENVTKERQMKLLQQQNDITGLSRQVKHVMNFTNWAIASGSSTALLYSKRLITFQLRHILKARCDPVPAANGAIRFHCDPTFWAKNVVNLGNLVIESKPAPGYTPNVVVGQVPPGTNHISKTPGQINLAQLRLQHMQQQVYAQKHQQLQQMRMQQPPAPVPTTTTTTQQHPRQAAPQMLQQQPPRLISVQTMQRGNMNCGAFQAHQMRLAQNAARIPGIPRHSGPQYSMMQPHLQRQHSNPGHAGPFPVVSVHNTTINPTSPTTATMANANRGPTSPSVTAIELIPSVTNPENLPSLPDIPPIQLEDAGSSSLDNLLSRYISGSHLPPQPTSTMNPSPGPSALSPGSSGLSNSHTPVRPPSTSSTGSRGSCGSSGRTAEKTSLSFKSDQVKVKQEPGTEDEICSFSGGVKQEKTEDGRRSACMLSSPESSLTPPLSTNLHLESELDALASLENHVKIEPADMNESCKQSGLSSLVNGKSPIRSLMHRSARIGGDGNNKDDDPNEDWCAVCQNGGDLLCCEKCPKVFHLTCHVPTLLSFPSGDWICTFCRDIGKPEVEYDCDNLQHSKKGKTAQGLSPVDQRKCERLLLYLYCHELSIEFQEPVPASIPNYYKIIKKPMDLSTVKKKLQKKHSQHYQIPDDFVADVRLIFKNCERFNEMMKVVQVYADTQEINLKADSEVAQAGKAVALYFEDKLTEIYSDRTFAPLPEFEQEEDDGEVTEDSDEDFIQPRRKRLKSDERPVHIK

[3] = biological target: T2, Transcription intermediary factor 1-alpha (Homo sapiens, UniProt O15164); assay: Inhibition of recombinant TRIM24 (unknown origin) using biotinylated H3 peptide (H3K9me3K18ac) by AlphaScreen assay
T2 sequence (O15164 whole entry): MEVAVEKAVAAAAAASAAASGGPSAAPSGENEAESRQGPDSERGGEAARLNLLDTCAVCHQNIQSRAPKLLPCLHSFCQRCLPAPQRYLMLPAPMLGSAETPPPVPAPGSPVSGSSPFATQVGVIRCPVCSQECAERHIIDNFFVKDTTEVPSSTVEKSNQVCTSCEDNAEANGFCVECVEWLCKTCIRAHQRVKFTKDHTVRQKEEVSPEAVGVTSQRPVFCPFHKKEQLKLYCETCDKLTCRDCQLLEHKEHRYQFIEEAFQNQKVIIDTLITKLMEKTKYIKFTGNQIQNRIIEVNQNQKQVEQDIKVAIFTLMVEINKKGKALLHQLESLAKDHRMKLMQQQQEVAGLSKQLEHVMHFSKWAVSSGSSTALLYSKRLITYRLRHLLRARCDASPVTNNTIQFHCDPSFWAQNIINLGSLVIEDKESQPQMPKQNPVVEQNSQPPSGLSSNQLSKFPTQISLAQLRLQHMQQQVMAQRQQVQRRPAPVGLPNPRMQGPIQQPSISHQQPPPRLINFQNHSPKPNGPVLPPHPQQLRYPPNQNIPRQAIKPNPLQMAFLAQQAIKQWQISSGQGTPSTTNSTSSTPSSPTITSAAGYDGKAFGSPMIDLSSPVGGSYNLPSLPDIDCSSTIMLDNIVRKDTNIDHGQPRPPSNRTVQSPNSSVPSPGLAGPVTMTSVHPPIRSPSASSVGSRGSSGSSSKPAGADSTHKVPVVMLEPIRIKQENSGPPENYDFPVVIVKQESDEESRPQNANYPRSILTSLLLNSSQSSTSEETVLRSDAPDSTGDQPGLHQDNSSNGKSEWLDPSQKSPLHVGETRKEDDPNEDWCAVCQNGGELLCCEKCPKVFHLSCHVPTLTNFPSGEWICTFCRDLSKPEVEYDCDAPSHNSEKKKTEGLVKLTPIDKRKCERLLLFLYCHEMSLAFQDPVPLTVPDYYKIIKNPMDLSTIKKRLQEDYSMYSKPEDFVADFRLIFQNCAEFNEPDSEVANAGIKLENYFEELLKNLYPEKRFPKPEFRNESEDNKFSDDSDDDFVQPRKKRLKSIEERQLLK

Structure (SMILES): COc1ccc(Nc2c(-c3nc[nH]c3C)nc3ccccn23)cc1
- Ratio IC50 [1]: 5.35

Structure (SMILES): CCCOc1ccn2c(C(C)=O)cc(-c3nc4ccccn4c3NCc3ccc(C#N)cc3)c2c1
- IC50 [2]: 46.3 µM

Structure (SMILES): Cn1cccc1C=O
- IC50 [2]: 0.305 µM
- IC50 [3]: 0.18 µM

Structure (SMILES): CCCOc1ccn2c(C(C)=O)cc(-c3nc4ccc(C(=O)OC)cn4c3NC3CCCCC3)c2c1
- IC50 [3]: 255 µM

Structure (SMILES): Cc1[nH]cnc1-c1nc2cnccn2c1NCc1ccc(C#N)cc1
- IC50 [2]: 121 µM
- IC50 [3]: 98.4 µM
- Ratio IC50 [1]: 0.82

Structure (SMILES): O=C1CCCCCCC1 [CYCLOOCTANONE]
- IC50 [2]: 0.25 µM
- IC50 [3]: 0.166 µM

Structure (SMILES): Cc1nc(-c2nc3ccc(Br)cn3c2NCc2ccc(C#N)cc2)c[nH]1
- IC50 [2]: 11.3 µM
- IC50 [3]: 81.7 µM
- Ratio IC50 [1]: 7.21

Structure (SMILES): COc1ccc(CCNc2c(-c3nc[nH]c3C)nc3ccccn23)cc1OC
- IC50 [2]: 1.36 µM
- IC50 [3]: 31.7 µM
- Ratio IC50 [1]: 23.2

Structure (SMILES): COc1ccc(C=O)c(O)c1
- IC50 [2]: 0.301 µM
- IC50 [3]: 0.22 µM

Structure (SMILES): Brc1ccc2nc(-c3ccc4nccn4c3)c(NCCN3CCOCC3)n2c1
- IC50 [3]: 1380 µM

Structure (SMILES): CCCOc1ccn2c(C(C)=O)cc(-c3nc4cnccn4c3NC3CCCCC3)c2c1
- IC50 [2]: 80 µM

Structure (SMILES): Cc1[nH]cnc1-c1nc2ccccn2c1NCc1ccc(C#N)cc1
- IC50 [2]: 16.4 µM
- IC50 [3]: 42.8 µM
- Ratio IC50 [1]: 2.61

Structure (SMILES): CCCOc1ccn2c(C(C)=O)cc(-c3nc4ccc(C(=O)OC)cn4c3NCc3ccc(C#N)cc3)c2c1
- IC50 [2]: 65.1 µM
- Ratio IC50 [1]: 515

Structure (SMILES): COc1ccc(CCNc2c(-c3ccc4nccn4c3)nc3ccccn23)cc1OC
- IC50 [3]: 1510 µM

Structure (SMILES): N#Cc1ccc(CNc2c(-c3ccc4nccn4c3)nc3ccccn23)cc1
- IC50 [2]: 87.4 µM
- IC50 [3]: 2080 µM
- Ratio IC50 [1]: 23.8

Structure (SMILES): COc1ccc(Nc2c(-c3ccc4nccn4c3)nc3ccc(Br)cn23)cc1
- IC50 [2]: 70.3 µM
- IC50 [3]: 224 µM
- Ratio IC50 [1]: 3.19

Structure (SMILES): COC(=O)c1ccc2nc(-c3nc[nH]c3C)c(NC3CCCCC3)n2c1
- IC50 [3]: 143 µM

Structure (SMILES): COc1ccc(Nc2c(-c3[nH]cnc3C)nc3ccc(Br)cn23)cc1
- IC50 [2]: 0.0137 µM
- IC50 [3]: 2.59 µM

Structure (SMILES): COc1ccc(Nc2c(-c3c[nH]c(C)n3)nc3cnccn23)cc1
- IC50 [2]: 153 µM
- IC50 [3]: 385 µM

Structure (SMILES): CCCOc1ccn2c(C(C)=O)cc(-c3nc4ccc(C(=O)OC)cn4c3NCCc3ccc(OC)c(OC)c3)c2c1
- IC50 [3]: 5650 µM

Structure (SMILES): COC(=O)c1ccc2nc(-c3nc[nH]c3C)c(NCCN3CCOCC3)n2c1
- Ratio IC50 [1]: 11.8

Structure (SMILES): O=Cc1cccnc1Br
- IC50 [2]: 5.48 µM
- IC50 [3]: 7.86 µM

Structure (SMILES): COc1ccc(CCNc2c(-c3c[nH]c(C)n3)nc3ccc(Br)cn23)cc1OC
- IC50 [3]: 63.5 µM

Structure (SMILES): COc1ccc(Nc2c(-c3nc[nH]c3C)nc3ccc(Br)cn23)cc1
- Ratio IC50 [1]: 189

Structure (SMILES): COCCNc1c(-c2nc[nH]c2C)nc2ccc(C(=O)OC)cn12
- IC50 [3]: 511 µM

Structure (SMILES): O=Cc1ccccc1O
- IC50 [2]: 0.299 µM
- IC50 [3]: 0.221 µM

Structure (SMILES): c1ccn2c(NCCN3CCOCC3)c(-c3ccc4nccn4c3)nc2c1
- IC50 [2]: 366 µM
- Ratio IC50 [1]: 48.4

Structure (SMILES): Cc1[nH]cnc1-c1nc2ccccn2c1NC1CCCCC1
- Ratio IC50 [1]: 8.45

Structure (SMILES): Cc1[nH]cnc1-c1nc2ccccn2c1NCCN1CCOCC1
- Ratio IC50 [1]: 13.3

Structure (SMILES): Cc1[nH]cnc1-c1nc2ccc(Br)cn2c1NCCN1CCOCC1
- IC50 [3]: 117 µM

Structure (SMILES): Cc1nc[nH]c1-c1nc2ccccn2c1NC1CCCCC1
- IC50 [2]: 1.07 µM
- IC50 [3]: 9.03 µM

Structure (SMILES): COCCNc1c(-c2c[nH]c(C)n2)nc2ccc(C(=O)OC)cn12
- IC50 [2]: 10.5 to 56.9 µM
- IC50 [3]: 4.07 µM

Structure (SMILES): Cc1ncc(CO)c(C=O)c1O
- IC50 [2]: 0.283 µM
- IC50 [3]: 0.225 µM

Structure (SMILES): CCCOc1ccn2c(C(C)=O)cc(-c3nc4ccc(C(=O)OC)cn4c3NCCOC)c2c1
- IC50 [3]: 2880 µM

Structure (SMILES): COC(=O)c1ccc2nc(-c3ccc4nccn4c3)c(NCCN3CCOCC3)n2c1
- IC50 [2]: 303 µM
- IC50 [3]: 700 µM

Structure (SMILES): Cc1nc[nH]c1-c1nc2cnccn2c1NC1CCCCC1
- IC50 [3]: 90.1 µM

Structure (SMILES): Cc1cccc2c(C=O)c[nH]c12
- IC50 [2]: 0.24 µM
- IC50 [3]: 0.157 µM

Structure (SMILES): Brc1ccc2nc(-c3ccc4nccn4c3)c(NC3CCCCC3)n2c1
- IC50 [3]: 100 µM

Structure (SMILES): COC(=O)c1ccc2nc(-c3nc[nH]c3C)c(NCCc3ccc(OC)c(OC)c3)n2c1
- IC50 [3]: 377 µM

Structure (SMILES): COc1cc(C=O)ccc1O [VANILLIN]
- IC50 [2]: 0.326 µM
- IC50 [3]: 0.162 µM

Structure (SMILES): COCCNc1c(-c2nc[nH]c2C)nc2cnccn12
- IC50 [2]: 204 µM
- Ratio IC50 [1]: 115

Structure (SMILES): O=C1CCCC1 [CYCLOPENTANONE]
- IC50 [2]: 0.234 µM
- IC50 [3]: 0.136 µM

Structure (SMILES): COc1ccc(CCNc2c(-c3ccc4nccn4c3)nc3cnccn23)cc1OC
- IC50 [2]: 29.7 µM
- Ratio IC50 [1]: 1.9

Structure (SMILES): COc1ccc(CCNc2c(-c3c[nH]c(C)n3)nc3ccccn23)cc1OC
- IC50 [3]: 44.4 µM

Structure (SMILES): O=Cc1cccc(-c2ccc(C(=O)O)cc2)c1
- IC50 [2]: 0.336 µM
- IC50 [3]: 0.165 µM

Structure (SMILES): COc1ccc(CCNc2c(-c3nc[nH]c3C)nc3ccc(Br)cn23)cc1OC
- IC50 [3]: 28.9 µM

Structure (SMILES): c1cn2c(NC3CCCCC3)c(-c3ccc4nccn4c3)nc2cn1
- IC50 [2]: 169 µM
- IC50 [3]: 320 µM

Structure (SMILES): COC(=O)c1ccc2nc(-c3c[nH]c(C)n3)c(NCc3ccc(C#N)cc3)n2c1
- IC50 [2]: 650 µM

Structure (SMILES): COCCNc1c(-c2nc[nH]c2C)nc2ccc(Br)cn12
- IC50 [3]: 134 µM

Structure (SMILES): CCCOc1ccn2c(C(C)=O)cc(-c3nc4cnccn4c3NCCOC)c2c1
- IC50 [3]: 2850 µM

Structure (SMILES): COC(=O)c1ccc2nc(-c3ccc4nccn4c3)c(NC3CCCCC3)n2c1
- IC50 [2]: 42.6 µM
- IC50 [3]: 502 µM

Structure (SMILES): O=Cc1ccc(N2CCCC2)cc1
- IC50 [2]: 0.269 µM
- IC50 [3]: 0.133 µM

Structure (SMILES): COC(=O)c1ccc2nc(-c3ccc4nccn4c3)c(NCc3ccc(C#N)cc3)n2c1
- IC50 [2]: 125 µM
- Ratio IC50 [1]: 486

Structure (SMILES): Cc1nc(-c2nc3cnccn3c2NC2CCCCC2)c[nH]1
- IC50 [2]: 415 µM
- IC50 [3]: 186 µM
